These results are taken from patent US8524917B2, “6-substituted indole-3-carboxylic acid amide compounds having sphingosine-1-phosphate (S1P) receptor antagonist biological activity” (Allergan, Inc., priority 2007, dated 2013).

This assay has as its target human S1P3 receptor (Homo sapiens (Human), UniProt Q99500). The assay can be described thus: Activation or block of activation of human S1P3 receptor, Ca+2 FLIPR assay. The assay is classed as cell-based. The settings on record: for Kb: second concentration in the cell, read-out: S1P3 Kb. The protocol:
Compounds were assessed for their ability to activate or block activation of the human S1P3 receptor in T24 cells stably expressing the human S1P3 receptor. Ten thousand cells/well were plated into 384-well poly-D-lysine coated plates one day prior to use. The growth media for the S1P3 receptor expressing cell line was McCoy's 5A medium supplemented with 10% charcoal-treated fetal bovine serum (FBS), 1% antibiotic-antimycotic and 400 μg/ml geneticin. On the day of the experiment, the cells were washed twice with Hank's Balanced Salt Solution supplemented with 20 mM HEPES (HBSS/Hepes buffer). […] Extracellular dye was removed by washing the cell plates four times prior to placing the plates in the FLIPR (Fluorometric Imaging Plate Reader, Molecular Devices). Ligands were diluted in HBSS/Hepes buffer and prepared in 384-well microplates. The positive control, Sphingosine-1-Phosphate (S1P), was diluted in HBSS/Hepes buffer with 4 mg/ml fatty acid free bovine serum albumin. The FLIPR transferred 12.5 μl from the ligand microplate to the cell plate and took fluorescent measurements for 75 seconds, taking readings every second, and then for 2.5 minutes, taking readings every 10 seconds. […] IC50 values were determined through a […] analysis using the Levenburg Marquardt algorithm.

[1] abbreviates: T24 cells stably expressing the human S1P3 receptor, FLIPR Ca+2 response, 0.61 nM to 10,000 nM, read-out: S1P3 IC50.
[2] abbreviates: T24 cells stably expressing the human S1P3 receptor, value in brackets.
Setting [3] is: T24 cells stably expressing the human S1P3 receptor.

Where two headings read alike, the source gives them in different places.

human S1P3 receptor, sequence (Q99500 whole entry): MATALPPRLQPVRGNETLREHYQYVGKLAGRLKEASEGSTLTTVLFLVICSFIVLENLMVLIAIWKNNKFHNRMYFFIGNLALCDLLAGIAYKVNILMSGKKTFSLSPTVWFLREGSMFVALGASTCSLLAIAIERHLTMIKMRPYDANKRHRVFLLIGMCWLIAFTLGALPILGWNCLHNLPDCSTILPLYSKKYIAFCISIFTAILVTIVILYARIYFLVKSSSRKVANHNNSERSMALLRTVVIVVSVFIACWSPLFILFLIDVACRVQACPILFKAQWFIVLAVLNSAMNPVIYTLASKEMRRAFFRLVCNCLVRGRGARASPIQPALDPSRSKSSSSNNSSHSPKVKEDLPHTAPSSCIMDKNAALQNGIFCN

Take `COC(=O)c1ccc2c(C(=O)NCc3ccc(F)c(F)c3)c(C(C)C)n(Cc3ccccc3)c2c1`: the half-inhibitory concentration (IC50) (as a rule, the concentration that inhibits the measured activity by half) under setting [1] is 12 nM. Also, the “S1P3 (% inh)” value under setting [2] is on record as 100%.
For `CC(C)c1c(C(=O)NCc2ccc(F)c(F)c2)c2ccc(C(=O)O)cc2n1Cc1ccccc1` the same measures were greater than 10000 nM and 40%.
The molecule `CC(C)c1c(C(=O)NCc2ccc(F)c(F)c2)c2ccc(C(=O)N3CCCC3)cc2n1Cc1ccccc1` showed an IC50 of 170 nM. In addition, under setting [2], the “S1P3 (% inh)” value is on record as 170 nM (100) %.
Take `CC(C)c1c(C(=O)NCc2ccc(F)c(F)c2)c2ccc(C(=O)N(C)C)cc2n1Cc1ccccc1`: the IC50 under setting [1] was determined as 197 nM. Besides, the “S1P3 (% inh)” value under setting [2] was 100%.
For `CC(C)NC(=O)c1ccc2c(C(=O)NCc3ccc(F)c(F)c3)c(C(C)C)n(Cc3ccccc3)c2c1`, under setting [1], the 50% inhibitory concentration (IC50) turned out to be 634 nM. Also, under setting [2], the “S1P3 (% inh)” value is listed as 100%.
In the case of `CCNC(=O)c1ccc2c(C(=O)NCc3ccc(F)c(F)c3)c(C(C)C)n(Cc3ccccc3)c2c1`, under setting [1], the IC50 is 346 nM. Besides, the “S1P3 (% inh)” value under setting [2] is 99%.
In the case of `CCCNC(=O)c1ccc2c(C(=O)NCc3ccc(F)c(F)c3)c(C(C)C)n(Cc3ccccc3)c2c1`, under setting [1], the IC50 came out at 146 nM. For the same molecule, the “S1P3 (% inh)” value under setting [2] stood at 99%.
For the molecule `CC(C)c1c(C(=O)NCc2ccc(F)c(F)c2)c2ccc(CN3CCCC3)cc2n1Cc1ccccc1`, under setting [1], the concentration for half-maximal inhibition (IC50) was found to be 362 nM. Further, the “S1P3 (% inh)” value under setting [2] worked out at 93%.
Regarding `CC(C)c1c(C(=O)NCc2ccc(F)c(F)c2)c2ccc(CN(C)C)cc2n1Cc1ccccc1`, the IC50 under setting [1] is 990 nM. For the same molecule, under setting [2], the “S1P3 (% inh)” value is reported as 98%.
For the molecule `CC(C)NCc1ccc2c(C(=O)NCc3ccc(F)c(F)c3)c(C(C)C)n(Cc3ccccc3)c2c1`, the IC50 under setting [1] worked out at 2300 nM. The “S1P3 (% inh)” value under setting [2] is recorded as 84%.
In the case of `CCNCc1ccc2c(C(=O)NCc3ccc(F)c(F)c3)c(C(C)C)n(Cc3ccccc3)c2c1`, the IC50 under setting [1] was 2500 nM. The “S1P3 (% inh)” value under setting [2] was determined as 87%.
With `CCCNCc1ccc2c(C(=O)NCc3ccc(F)c(F)c3)c(C(C)C)n(Cc3ccccc3)c2c1`, the IC50 under setting [1] is 2600 nM. In addition, under setting [2], the “S1P3 (% inh)” value is listed as 77%.
In the case of `CC(C)COC(=O)c1ccc2c(C(=O)NCc3ccc(F)c(F)c3)c(C(C)C)n(Cc3ccccc3)c2c1`, 12 nM corresponded to half-maximal inhibition (IC50). The “S1P3 (% inh)” value under setting [2] was 12 nM (97) %.
`CCCCOC(=O)c1ccc2c(C(=O)NCc3ccc(F)c(F)c3)c(C(C)C)n(Cc3ccccc3)c2c1`: the IC50 under setting [1] was determined as 4 nM. Also, the “S1P3 (% inh)” value under setting [2] amounted to 97%.
With `CO/N=C/c1ccc2c(C(=O)NCc3ccc(F)c(F)c3)c(C(C)C)n(Cc3ccccc3)c2c1`, the IC50 under setting [1] was 21 nM. Further, the “S1P3 (% inh)” value under setting [2] was determined as 99%.
For `CC(C)CO/N=C/c1ccc2c(C(=O)NCc3ccc(F)c(F)c3)c(C(C)C)n(Cc3ccccc3)c2c1` the same measures were 88 nM and 100%.
In the case of `CC(C)c1c(C(=O)NCc2cccnc2)c2ccc(OC3CCCC3)cc2n1Cc1ccccn1`, the IC50 under setting [1] was determined as 86 nM. Besides, the “S1P3 (% inh)” value under setting [2] came to 95%.
Take `CCOC(=O)c1ccc2c(C(=O)NCc3ccccc3)c(C(C)C)n(Cc3ccccc3)c2c1`: the IC50 under setting [1] came out at 9 nM. Further, the “S1P3 (% inh)” value under setting [2] turned out to be 96%.
Turning to `CCOC(=O)c1ccc2c(C(=O)NCc3cccnc3)c(C(C)C)n(Cc3ccccc3)c2c1`, the IC50 was determined as 187 nM and the “S1P3 (% inh)” value is recorded as 187 nM (95) %.
With `CCO/N=C/c1ccc2c(C(=O)NCc3ccc(F)c(F)c3)c(C(C)C)n(Cc3ccccc3)c2c1`, under setting [1], the IC50 came to 145 nM. For the same molecule, under setting [2], the “S1P3 (% inh)” value turned out to be 99%.
Turning to `CC(C)Oc1ccc2c(C(=O)NCc3cccnc3)c(C(C)C)n(Cc3ccccn3)c2c1`, the “S1P3 (% inh)” value under setting [2] is recorded as “ND (98) %”.
For `CCCOc1ccc2c(C(=O)NCc3cccnc3)c(C(C)C)n(Cc3ccccn3)c2c1`, the concentration for half-maximal inhibition (IC50) under setting [1] came out at 1200 nM. Further, under setting [2], the “S1P3 (% inh)” value was 99%.
Consider `CC(C)COc1ccc2c(C(=O)NCc3cccnc3)c(C(C)C)n(Cc3ccccn3)c2c1`, for which 124 nM corresponded to half-maximal inhibition (IC50) and the “S1P3 (% inh)” value is listed as 124 nM (99) %.
As to `CC(C)c1c(C(=O)NCc2cccnc2)c2ccc(O)cc2n1Cc1ccccn1`, the “S1P3 (% inh)” value under setting [2] is on record as “ND (54) %”.
On to `CCOC(=O)c1ccc2c(C(=O)NCc3cccc(F)c3)c(C(C)C)n(Cc3ccccc3)c2c1`, for which the IC50 under setting [1] turned out to be 42 nM. Also, under setting [2], the “S1P3 (% inh)” value turned out to be 99%.
On to `CCOC(=O)c1ccc2c(C(=O)NCc3ccc(F)cc3)c(C(C)C)n(Cc3ccccc3)c2c1`, for which, under setting [1], the IC50 came to 43 nM. For the same molecule, the “S1P3 (% inh)” value under setting [2] is given as 99%.
For `CC(C)OC(=O)c1ccc2c(C(=O)NCc3ccc(F)c(F)c3)c(C(C)C)n(Cc3ccccc3)c2c1` the same measures were 45 nM and 99%.
Take `CC(C)c1c(C(=O)NCc2ccc(F)c(F)c2)c2ccc(/C=N/OC(C)(C)C)cc2n1Cc1ccccc1`: under setting [1], the IC50 was 145 nM. Also, the “S1P3 (% inh)” value under setting [2] worked out at 99%.
For `CCO/N=C(\C)c1ccc2c(C(=O)NCc3ccc(F)c(F)c3)c(C(C)C)n(Cc3ccccc3)c2c1` the same measures were 262 nM and 98%.
For `CO/N=C(\C)c1ccc2c(C(=O)NCc3ccc(F)c(F)c3)c(C(C)C)n(Cc3ccccc3)c2c1`, the concentration for half-maximal inhibition (IC50) was determined as 147 nM and the “S1P3 (% inh)” value is recorded as 147 nM (100) %.
Consider `CC(C)c1c(C(=O)NCc2ccc(F)c(F)c2)c2ccc(OC3CCN(C(=O)OC(C)(C)C)C3)cc2n1Cc1ccccc1` (stereo not drawn), for which the IC50 under setting [1] turned out to be 673 nM. In addition, under setting [2], the “S1P3 (% inh)” value was 100%.
Take `CC(C)c1c(C(=O)NCc2ccc(F)c(F)c2)c2ccc(OC3CCNC3)cc2n1Cc1ccccc1` (stereo not drawn): the IC50 under setting [1] amounted to 2400 nM. In addition, the “S1P3 (% inh)” value under setting [2] turned out to be 80%.
Regarding `CCOC(=O)c1ccc2c(C(=O)NCc3cccc(F)c3)c(C(C)C)n(Cc3ccccn3)c2c1`, the IC50 is 174 nM and the “S1P3 (% inh)” value is reported as 174 nM (100) %.
Take `CC(C)c1c(C(=O)NCc2ccc(F)c(F)c2)c2ccc(OC3CCOC3)cc2n1Cc1ccccn1` (stereo not drawn): the IC50 under setting [1] worked out at 19 nM. The Kb under setting [3] came to 21 nM. Besides, the “S1P3 (% inh)” value under setting [2] is on record as 100%.
As to `CC(C)c1c(C(=O)NCc2ccc(F)c(F)c2)c2ccc(OC3CCCC3)cc2n1Cc1ccccn1`, the IC50 under setting [1] amounted to 3 nM. In addition, the Kb under setting [3] turned out to be 4 nM. Also, under setting [2], the “S1P3 (% inh)” value worked out at 100%.
`C#CCOc1ccc2c(C(=O)NCc3ccc(F)c(F)c3)c(C(C)C)n(Cc3ccccn3)c2c1`: the IC50 under setting [1] was 324 nM. The “S1P3 (% inh)” value under setting [2] came to 99%.
Turning to `CC(C)c1c(C(=O)NCc2ccc(F)c(F)c2)c2ccc(/C=N/N(C)C)cc2n1Cc1ccccn1`, the IC50 under setting [1] stood at 93 nM. The “S1P3 (% inh)” value under setting [2] is 100%.
For `CO/N=C/c1ccc2c(C(=O)NCc3ccc(F)c(F)c3)c(C(C)C)n(Cc3ccccn3)c2c1` the same measures were 137 nM and 100%.
For `CC(=NO)c1c(C(=O)NCc2ccc(F)c(F)c2)c2ccc(OC(C)C)cc2n1Cc1ccccn1` (stereo in doubt) [Compound 110, (E)-N-(3,4-Difluorobenzyl)-2-(1-(hydroxyimino)ethyl)-6-isopropoxy-1-(pyridin-2-ylmethyl)-1H-indole-3-carboxamide], the IC50 came to 384 nM and the “S1P3 (% inh)” value is given as 384 nM (100) %.
